# Counter-ions that a name gives are not always drawn.
# Columns and labels:
# [1] = Solubility of WHI-P131 free base and chloride salt in various liquids; type: physicochemical
# Method: The solubility of WHI-P131 free base was measured in water, propylene glycol, polyethylene glycols (PEGs), ethanol, and triglycerides. The solubility of WHI-P131 is very poor in water. It was about 35 times more soluble in C8-C10 medium chain triglyceride (Captex 300) than in water. It was much more soluble in ethanol and hydrophilic cosolvents such as propylene glycol and PEGs.
# Parallel solubility measurements were also carried out using WHI-P131 chloride salt. […] In contrast, the solubility of WHI-P131 chloride decreased drastically in all other liquids. […] This fact underscores the importance of knowing the solubility profile of both the free base and salt forms of an ionizable compound when making choices of its delivery vehicles.
SMILES,melting point,further results
"COc1cc2ncnc(Nc3cc(Cl)c(O)c(Cl)c3)c2cc1OC [P-189, 4-(4′-Hydroxyl-3′,5′-dichlorophenyl)amino-6,7-dimethoxyquinazoline]",293 to 295 °C,–
"COc1cc2ncnc(Nc3cc(Br)c(C)c(Br)c3)c2cc1OC [P-212, 4-(3′,5′-Dibromo-4′-methylphenyl)-amino-6,7-dimethoxyquinazoline]",275 to 279 °C,–
"COc1cc2ncnc(Nc3c(Br)cccc3Br)c2cc1OC [P-262, 4-(2′,6′-Dibromophenyl)-amino-6,7-dimethoxyquinazoline]",243 to 246 °C,–
"COc1cc2ncnc(Nc3ccc(O)c(C(=O)O)c3)c2cc1OC [P-182, 4-(4′-Hydroxyl-3′-Carboxyphenyl)-amino-6,7-dimethoxyquinazoline]",> 300 °C,–
"COc1cc2ncnc(Nc3ccc(O)cc3)c2cc1OC [WHI-P131 Free base, 4-(4′-Hydroxylphenyl)-amino-6,7-dimethoxyquinazoline]",–,Solubility ([1]; Captex 300): 0.88 ± 0.08 mg/mL; Solubility ([1]; Ethanol): 18.6 ± 0.5 mg/mL; Solubility ([1]; PEG200): >100 mg/mL; Solubility ([1]; PEG300): >185 mg/mL; Solubility ([1]; Propylene glycol): 19.5 ± 0.7 mg/mL; Solubility ([1]; Water): 0.025 mg/mL; Solubility ([1]; ethanol): 1.86%; Solubility ([1]; polyethylene glycols): greater than 10%; Solubility ([1]; propylene glycol): 1.95%
"COc1cc2ncnc(Nc3c(Br)cc(Br)cc3Br)c2cc1OC [P-222, 4-(2′,4′,6′-Tribromophenyl)amino-6,7-dimethoxyquinazoline]",250 to 255 °C,–
"COc1cc2ncnc(Nc3cnc(O)nc3O)c2cc1OC [P-215, 4-(2′,4′-Dihydroxyl-1′,3′-diazine-5′)-amino-6,7-dime-thoxyquinazoline]",> 300 °C,–
"COc1cc2ncnc(Nc3c(F)c(F)c(Br)c(F)c3F)c2cc1OC (as salt: salt) [P-144, 4-(2′,3′,5′,6′-Tetrafluoro-4′-bromolphenyl)-amino-6,7-dime-thoxyquinazoline]",180 to 182 °C,–
"COc1cc2ncnc(Nc3ccc(C)c(Br)c3Br)c2cc1OC [P-210, 4-(2′,3′-Dibromo-4′-methylphenyl)-amino-6,7-dimethoxyquinazoline]",233 to 236 °C,–
"COc1cc2ncnc(Nc3cc(Cl)ccc3O)c2cc1OC (as salt: salt) [P-93, 4-(3′-Chlooro-6′-hydroxylphenyl)amino-6,7-dimethoxyquinazoline]",295 °C (dec.),–
"COc1cc2ncnc(Nc3ccc4c(c3)Cc3cc(Br)ccc3-4)c2cc1OC (as salt: salt) [P-160, 4-[(7′-Bromofluorene)-2]-amino-6,7-dimethoxyquinazoline]",254 to 256 °C,–
"COc1cc2ncnc(Nc3ccc(C(F)(F)F)cc3)c2cc1OC [P-223, 4-(4′-Trifluoromethylphenyl)-amino-6,7-dimethoxyquinazoline]",243 to 245 °C,–
"COc1cc2ncnc(Nc3ncccc3O)c2cc1OC [P-150, 4-[(3′-Hydroxylpyridine)-2′]-amino-6,7-dimethoxyquinazoline]",185 to 187 °C,–
"COc1cc2ncnc(Nc3ccc(CCO)cc3)c2cc1OC [P-265, 4-[4′-(2″-Hydroxylethylphenyl)]-amino-6,7-dimethoxyqui-nazoline]",235 to 240 °C,–
"COc1cc2ncnc(Nc3ccc(Br)cc3Br)c2cc1OC [P-263, 4-(2′,4′-Dibromophenyl)-amino-6,7-dimethoxyquinazoline]",257 to 262 °C,–
"COc1cc2ncnc(Nc3ccccc3CO)c2cc1OC [P-191, 4-(6′-Hydroxymethylphenyl)-amino-6,7-dimethosyquinazoline]",215 to 218 °C,–
"COc1cc2ncnc(Nc3ccc(Br)cc3CO)c2cc1OC (as salt: salt) [P-190, 4-(4′-Bromo-6′-hydroxymethylphenyl)-amino-6,7-dimethoxyquinazoline]",222 to 223 °C,–
"COc1cc2ncnc(Nc3ccc(Br)cc3C(=O)O)c2cc1OC [P-88, 4-(4′-Bromo-2′-caboxylphenyl)-amino-6,7-dimethoxyquinazoline]",> 300 °C,–
"COc1cc2ncnc(Nc3ccccc3Br)c2cc1OC (as salt: salt) [P-261, 4-(2′-Bromophenyl)-amino-6,7-dimethoxyquinazoline]",241 to 243 °C,–
"COc1cc2ncnc(Nc3ccc(O)cc3O)c2cc1OC [P-192, 4-(2′,4′-Dihydroxyphenyl)-amino-6,7-dimethoxyquinazoline]",240 °C (dec.),–
"COc1cc2ncnc(Nc3cc(Br)c(C)cc3Br)c2cc1OC (as salt: salt) [P-211, 4-(2′,5′-Dibromo-4′-methylphenyl)-amino-6,7-dimethoxyquinazoline]",282 to 284 °C,–
"COc1cc2ncnc(Nc3c(Br)cc(C)cc3Br)c2cc1OC [P-241, 4-(2′,6′-Dibromo-4′-methylphenyl)-amino-6,7-dimethoxyquinazoline]",235 to 237 °C,–
"COc1cc2ncnc(Nc3ccccc3C(F)(F)F)c2cc1OC [P-228, 4-(2′-Trifluoromethylphenyl)-amino-6,7-dimethoxyquinazoline]",242 to 245 °C,–
"COc1cc2ncnc(Nc3ccc(C)c(Br)c3)c2cc1OC (as salt: salt) [P-111, 4-(3′-Bromo-4′-methylphenyl)-amino-6,7-dimethoxyquinazoline]",225 to 228 °C,–

# Continued, in another order:
melting point,SMILES,further results
280 to 282 °C,"COc1cc2ncnc(Nc3ccc(C(c4ccc(N)cc4)(C(F)(F)F)C(F)(F)F)cc3)c2cc1OC (as salt: salt) [P-352, 4-{4′-[2″-(4″′-Aminophenyl)-hexafluoropropyl]phenyl}-amino-6,7-dimethoxyquinazoline]",–
245 to 247 °C,"COc1cc2ncnc(Nc3ccc(O)cc3Cl)c2cc1OC (as salt: salt) [P-278, 4-(4′-Hydroxyl-2′-chlorophenyl)-amino-6,7-dimethoxy-quinazoline]",–
204 to 205 °C,"COc1cc2ncnc(Nc3cccc4c(O)cccc34)c2cc1OC (as salt: salt) [P-293, 4-(1′-Hydroxy-naphthyl-5′)-amino-6,70-dimethoxyquina-zoline]",–
215 to 218 °C,"COc1cc2ncnc(Nc3cccc(C(C)O)c3)c2cc1OC (centres unmarked) [P-276, 4-[3′-(1″-Hydroxyethyl)]-amino-6,7-dimethoxyquinazoline]",–
235 to 237 °C,"COc1cc2ncnc(Nc3ccccc3OC(F)(F)F)c2cc1OC (as salt: salt) [P-365, 4-(2′-Trifluoromethoxylphenyl)-amino-6,7-dimethoxyquinazoline]",–
268 to 270 °C,"COc1cc2ncnc(Nc3ccc(O)c(F)c3)c2cc1OC (as salt: salt) [P-369, 4-(4′Hydroxyl-3′-fluorophenyl)-amino-6,7-dimethoxyquinazoline]",–
270 to 272 °C,"COc1cc2ncnc(Nc3cc(C(F)(F)F)cc(C(F)(F)F)c3)c2cc1OC (as salt: salt) [P-366, 4-(3′,5′-Ditrifluoromethylphenyl)-amno-6,7-dimethoxyquinazoline]",–
245 to 248 °C,"COc1cc2ncnc(Nc3ccc(Cl)c4ccccc34)c2cc1OC (as salt: salt) [P-415, 4-(4′-Chloronaphthy-1′)-amino-6,7-dimethoxyquinazoline]",–
240 to 242 °C,"COc1cc2ncnc(Nc3ccc(I)cc3)c2cc1OC (as salt: salt) [P-300, 4-(4′-Iodophenyl)-amino-6,7-dimethoxyquinazoline]",–
255 to 257 °C,"COc1cc2ncnc(Nc3cc(-c4ccccc4)c(O)c(-c4ccccc4)c3)c2cc1OC [P-277, 4-(4′-Hydroxy-3′,5′-diphenylphenyl)-amino-6,7-dime-hoxyquinazoline]",–
228 to 230 °C,"COc1cc2ncnc(Nc3cc(F)c(O)c(F)c3)c2cc1OC (as salt: salt) [P-408, 4-(4′-Hydroxyl-3′,5′-difluorophenyl)-amino-6,7-dimethoxy-quinazoline]",–
248 to 250 °C,"COc1cc2ncnc(Nc3ccc(O)c(I)c3)c2cc1OC (as salt: salt) [P-299, 4-(4′-Hydroxy-3′-iodophenyl)-amino-6,7-dimethoxyquinazoline]",–
259 to 260 °C,"COc1cc2ncnc(Nc3cc(I)c(O)c(I)c3)c2cc1OC (as salt: salt) [P-294, 4-(4′-Hydroxy-3,5-diiodophenyl)-amino-6,7-dimethoxy-quinazoline]",–
218 to 220 °C,"COc1cc2ncnc(Nc3c(O)ccc4ccccc34)c2cc1OC (as salt: salt) [P-275, 4-(2′-Naphthol-1)-amino-6,7-dimethoxyquinazoline]",–
225 to 230 °C,"COc1cc2ncnc(Nc3ccccc3I)c2cc1OC (as salt: salt) [P-270, 4-(2′-Iodophenyl)-amino-6,7-dimethoxyquinazoline]",–
